Earlier results in patent US9023395B2, “Formulation of active agent loaded activated PLGA nanoparticles for targeted cancer nano-therapeutics” (University of North Texas Health Science Center at Fort …, priority 2007, dated 2015).

Conditions: for Solubility: solvent in which the linker is soluble

| SMILES | water solubility | Solubility |
| --- | --- | --- |
| O=C(CCN1C(=O)C=CC1=O)ON1C(=O)CCC1=O [BMPS, N-[b-maleimidopropyl-oxy] succinimide ester] | water insoluble | DMSO |
| O=C(CCCC(=O)ON1C(=O)CCC1=O)ON1C(=O)CCC1=O [DSG, Disuccinimidyl glutarate] | water insoluble | DMSO |
| CCCCCCCCCCCCCCCC(=O)ON1C(=O)CCC1=O [PAS, Palmitic acid N- hydroxysuccin- imide ester] |  | DMSO |
